This is an account of results in US20230009626A1 (ICHNOS SCIENCES S.A., priority 2018, published 2023).

Molecules are shown by their SMILES. Where a name gives a salt, the structure may show the parent alone.

The assay concerns the target HPK1 (MAP4K1) (Homo sapiens, UniProt Q92918). Put plainly: FRET Assay for HPK1 (MAP4K1): one step binding assay, displacement of labeled tracer. Particulars: for inhibition at 1 µM: 1 μM compound; for inhibition at 1 µM / inhibition at 10 µM: FRET ratio 665/620, percent of control; for IC50: dose response curve, nonlinear regression; for inhibition at 10 µM: 10 μM compound. An excerpt: FRET Assay for HPK1 (MAP4K1):
This is a one step binding assay based on the binding and displacement of the labeled tracer, where compound addition is followed by addition of the anti-GST tagged europium (Eu) as the donor and Alexa Fluor-labeled tracer as the acceptor. Simultaneous binding of both the tracer and GST-antibody to the kinase domain of HPK1 results in a high degree of FRET (fluorescence resonance energy transfer) from the anti-GST tagged europium (Eu) fluorophore to the Alexa Fluor® 647 fluorophore on the kinase tracer and this signal is reduced in presence of the inhibitor that can be measured.
Test compounds or reference compounds such as Sunitinib (Sigma) were dissolved in dimethylsulfoxide (DMSO) to prepare 10.0 mM stock solutions and diluted to the desired concentration. The final concentration of DMSO in the reaction was 3% (v/v). The assay mixture was prepared by mixing 4 nM of the Eu-Anti-GST Antibody and 10 nM MAP4K-1 enzyme in the Kinase buffer containing 50mM HEPES (pH 7.5), 10 mM MgCl2, 1 mM EGTA, 0.01% Brij-35 with or without the desired concentration of the compound. The reaction was incubated on ice for 15 mins. The pre-incubation step was followed by addition of the 20 nM Kinase Tracer 222 into the reaction mixture. After shaking for 5 min the reaction was further incubated for 1 hour at room temperature and this was kept at 4° C. and read on ARTEMIS reader as per the kit instructions (Thermo). […] The activity was calculated as percent of control reaction. IC50 values were calculated from dose response curve by nonlinear regression analysis using GraphPad Prism software.
Percentage inhibition at concentrations of 1.0 μM and 10.0 μM are given in the table along with IC50 (nM) details for selected examples.

HPK1 (MAP4K1), sequence (Q92918 whole entry, the tested form may be a part): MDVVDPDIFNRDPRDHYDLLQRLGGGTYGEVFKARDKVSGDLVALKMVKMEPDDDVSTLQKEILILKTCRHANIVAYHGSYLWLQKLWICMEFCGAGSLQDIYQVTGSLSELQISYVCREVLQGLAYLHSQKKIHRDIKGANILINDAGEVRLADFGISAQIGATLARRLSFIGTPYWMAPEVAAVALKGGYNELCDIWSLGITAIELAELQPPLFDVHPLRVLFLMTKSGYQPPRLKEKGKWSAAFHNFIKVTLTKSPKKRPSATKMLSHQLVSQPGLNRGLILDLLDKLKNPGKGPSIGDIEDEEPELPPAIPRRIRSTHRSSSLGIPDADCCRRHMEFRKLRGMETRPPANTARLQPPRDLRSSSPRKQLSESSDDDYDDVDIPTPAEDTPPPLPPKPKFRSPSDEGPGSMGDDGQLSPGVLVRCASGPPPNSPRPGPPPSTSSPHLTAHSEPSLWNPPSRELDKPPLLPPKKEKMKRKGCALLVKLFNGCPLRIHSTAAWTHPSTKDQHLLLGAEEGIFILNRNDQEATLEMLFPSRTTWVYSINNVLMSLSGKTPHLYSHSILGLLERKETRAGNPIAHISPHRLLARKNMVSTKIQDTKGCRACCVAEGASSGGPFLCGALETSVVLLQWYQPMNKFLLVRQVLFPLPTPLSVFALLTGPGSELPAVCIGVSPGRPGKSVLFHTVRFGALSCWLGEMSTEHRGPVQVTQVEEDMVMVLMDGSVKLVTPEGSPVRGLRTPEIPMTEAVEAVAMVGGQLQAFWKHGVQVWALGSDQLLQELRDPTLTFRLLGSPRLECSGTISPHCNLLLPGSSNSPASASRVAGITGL

Consider `C/C(Nc1cc(C)n(C(F)F)n1)=C1/C(=O)Nc2cnc(-c3cc(F)ccc3C)cc21` [Example 215, (Z)-3-(1-((1-(Difluoromethyl)-5-methyl-1H-pyrazol-3-yl)amino)ethylidene)-5-(5-fluoro-2-methylphenyl)-1H-pyrrolo[2,3-c]pyridin-2(3H)-one], for which the inhibition at 1 µM is 67.3% and the concentration for half-maximal inhibition (IC50) was less than 50 nM.
Take `CCOc1cccc(F)c1-c1cc2c(cn1)NC(=O)/C2=C(/C)Nc1ccc(N2CCNCC2)cc1` [Example 34, (Z)-5-(2-Ethoxy-6-fluorophenyl)-3-(1-((4-(piperazin-1-yl)phenyl)amino)ethylidene)-1H-pyrrolo[2,3-c]pyridin-2(3H)-one]: the inhibition at 1 µM was determined as 81.7%, the inhibition at 10 µM is 80% and the IC50 was less than 50 nM.
For `C/C(Nc1ncc(C)s1)=C1/C(=O)Nc2cnc(-c3cnccc3C)cc21` [Example 178, (Z)-5-(4-Methylpyridin-3-yl)-3-(1-((5-methylthiazol-2-yl)amino)ethylidene)-1H-pyrrolo[2,3-c]pyridin-2(3H)-one], in that order: 68%, 77.8% and less than 50 nM.
Turning to `COc1cccc(F)c1-c1cc2c(cn1)NC(=O)/C2=C(/C)NC1CCNCC1` [Example 72, (Z)-5-(2-Fluoro-6-methoxyphenyl)-3-(1-(piperidin-4-ylamino)ethylidene)-1H-pyrrolo[2,3-c]pyridin-2(3H)-one trihydrochloride], the inhibition at 1 µM was 39.8% and the inhibition at 10 µM came out at 68.6%.
Regarding `C/C(Nc1cnn(CC2CC2)c1)=C1/C(=O)Nc2cnc(-c3cnccc3C)cc21` [Example 67, (Z)-3-(1-((1-(Cyclopropylmethyl)-1H-pyrazol-4-yl)amino)ethylidene)-5-(4-methylpyridin-3-yl)-1H-pyrrolo[2,3-c]pyridin-2(3H)-one], the inhibition at 1 µM came to 74%, the inhibition at 10 µM came out at 71.4% and the IC50 is less than 50 nM.
For `C/C(Nc1ccn(C(C)(C)CO)n1)=C1/C(=O)Nc2cnc(-c3cnccc3C)cc21` [Example 145, (Z)-3-(1-((1-(1-Hydroxy-2-methylpropan-2-yl)-1H-pyrazol-3-yl)amino)ethylidene)-5-(4-methylpyridin-3-yl)-1H-pyrrolo[2,3-c]pyridin-2(3H)-one], in that order: 79.4%, 83.9% and less than 50 nM.
On the same counts, the results for `C/C(Nc1ccn(C(C)(C)C#N)n1)=C1/C(=O)Nc2cnc(-c3cncc(N)c3C)cc21` [Example 106, (Z)-2-(3-((1-(5-(5-Amino-4-methylpyridin-3-yl)-2-oxo-1H-pyrrolo[2,3-c]pyridin-3(2H)-ylidene)ethyl)amino)-1H-pyrazol-1-yl)-2-methylpropanenitrile] are 80%, 92.4% and less than 50 nM.
For `COc1cccc(F)c1-c1cc2c(cn1)NC(=O)/C2=C(\Nc1cnn(C)c1)C(C)C` [Example 40, (Z)-5-(2-Fluoro-6-methoxyphenyl)-3-(2-methyl-1-((1-methyl-1H-pyrazol-4-yl)amino)propylidene)-1H-pyrrolo[2,3-c]pyridin-2(3H)-one], in that order: 81.3%, 92% and 100 to 500 nM.
`C/C(Nc1ccn(CCN2CCOCC2)n1)=C1/C(=O)Nc2cnc(-c3cnccc3C)cc21` [Example 101, (Z)-5-(4-Methylpyridin-3-yl)-3-(1-((1-(2-morpholinoethyl)-1H-pyrazol-3-yl)amino)ethylidene)-1H-pyrrolo[2,3-c]pyridin-2(3H)-one]: the inhibition at 1 µM came to 68%, the inhibition at 10 µM came out at 81.8% and the half-maximal inhibitory concentration (IC50) was less than 50 nM.
On the same counts, the results for `C/C(Nc1cc(C)n(CC[C@@H](C)O)n1)=C1/C(=O)Nc2cnc(-c3cnccc3C)cc21` [Example 190, (R,Z)-3-(1-((1-(3-Hydroxybutyl)-5-methyl-1H-pyrazol-3-yl)amino)ethylidene)-5-(4-methylpyridin-3-yl)-1H-pyrrolo[2,3-c]pyridin-2(3H)-one] are 52.4%, 68.6% and greater than 500 nM.
On the same counts, the results for `COc1cccc(F)c1-c1cc2c(cn1)NC(=O)/C2=C(/C)Nc1ccc(N2CCNCC2)cc1` [Example 108, (Z)-5-(2-Fluoro-6-methoxyphenyl)-3-(1-((4-(piperazin-1-yl)phenyl)amino)ethylidene)-1H-pyrrolo[2,3-c]pyridin-2(3H)-one] are 74.2%, 77% and less than 50 nM.
On the same counts, the results for `C/C(Nc1ccc(N2CCOCC2)cn1)=C1/C(=O)Nc2cnc(-c3cnccc3C)cc21` [Example 107, (Z)-5-(4-Methylpyridin-3-yl)-3-(1-((5-morpholinopyridin-2-yl)amino)ethylidene)-1H-pyrrolo[2,3-c]pyridin-2(3H)-one] are 72.3%, 80% and less than 50 nM.
In the case of `C/C(Nc1cc(C)n(CC(F)F)n1)=C1/C(=O)Nc2cnc(-c3c(C)cccc3F)cc21` [Example 201, (Z)-3-(1-((1-(2,2-Difluoroethyl)-5-methyl-1H-pyrazol-3-yl)amino)ethylidene)-5-(2-fluoro-6-methylphenyl)-1H-pyrrolo[2,3-c]pyridin-2(3H)-one], the inhibition at 1 µM stood at 65.7%, the inhibition at 10 µM was 73.6% and the IC50 was less than 50 nM.
For `C/C(Nc1cc(C)n(C[C@@H](C)O)n1)=C1/C(=O)Nc2cnc(-c3cnccc3C)cc21` [Example 188, (R,Z)-3-(1-((1-(2-Hydroxypropyl)-5-methyl 1H-pyrazol-3-yl)amino)ethylidene)-5-(4-methylpyridin-3-yl)-1H-pyrrolo[2,3-c]pyridin-2(3H)-one], in that order: 71%, 76% and less than 50 nM.
For `C/C(Nc1cc(C2CC2)n(C)n1)=C1/C(=O)Nc2cnc(-c3cnccc3C)cc21` [Example 152, (Z)-3-(1-((5-Cyclopropyl-1-methyl-1H-pyrazol-3-yl)amino)ethylidene)-5-(4-methylpyridin-3-yl)-1H-pyrrolo[2,3-c]pyridin-2(3H)-one], in that order: 74.3%, 70.4% and less than 50 nM.
Regarding `C/C(Nc1ccc(N2CCN(C3COC3)CC2)nc1)=C1/C(=O)Nc2cnc(-c3cnccc3C)cc21` [Example 77, (Z)-5-(4-Methylpyridin-3-yl)-3-(1-((6-(4-(oxetan-3-yl)piperazin-1-yl)pyridin-3-yl)amino)ethylidene)-1H-pyrrolo[2,3-c]pyridin-2(3H)-one], the inhibition at 1 µM is 73%, the inhibition at 10 µM came to 80.3% and the concentration for half-maximal inhibition (IC50) is less than 50 nM.
As to `C/C(Nc1cc(C)n(CCC(C)C)n1)=C1/C(=O)Nc2cnc(-c3cnccc3C)cc21` [Example 204, (Z)-3-(1-((1-Isopentyl-5-methyl-1H-pyrazol-3-yl)amino)ethylidene)-5-(4-methylpyridin-3-yl)-1H-pyrrolo[2,3-c]pyridin-2(3H)-one], the inhibition at 1 µM amounted to 72.7%, the inhibition at 10 µM was 86.1% and the IC50 is less than 50 nM.
On the same counts, the results for `C/C(Nc1cc(C)n(CCC(C)(C)O)n1)=C1/C(=O)Nc2cnc(-c3c(C)cccc3F)cc21` [Example 203, (Z)-5-(2-Fluoro-6-methylphenyl)-3-(1-((1-(3-hydroxy-3-methylbutyl)-5-methyl-1H-pyrazol-3-yl)amino)ethylidene)-1H-pyrrolo[2,3-c]pyridin-2(3H)-one] are 67.6%, 83% and less than 50 nM.
On to `C/C(Nc1cc(C)n(CC[C@H](C)O)n1)=C1/C(=O)Nc2cnc(-c3cnccc3C)cc21` [Example 195, (S,Z)-3-(1-((1-(3-Hydroxybutyl)-5-methyl-1H-pyrazol-3-yl)amino)ethylidene)-5-(4-methylpyridin-3-yl)-1H-pyrrolo[2,3-c]pyridin-2(3H)-one], for which the inhibition at 1 µM came out at 25.1% and the inhibition at 10 µM was 61.1%.
On to `C/C(Nc1cn[nH]c1)=C1/C(=O)Nc2cnc(-c3cnccc3C)cc21` [Example 64, (Z)-3-(1-((1H-Pyrazol-4-yl)amino)ethylidene)-5-(4-methylpyridin-3-yl)-1H-pyrrolo[2,3-c]pyridin-2(3H)-one], for which the inhibition at 1 µM is 83.3%, the inhibition at 10 µM amounted to 91.2% and the IC50 was less than 50 nM.
On the same counts, the results for `C/C(Nc1cc2n(n1)CCOC2)=C1/C(=O)Nc2cnc(-c3cnccc3C)cc21` [Example 146, (Z)-3-(1-((6,7-Dihydro-4H-pyrazolo[5,1-c][1,4]oxazin-2-yl)amino)ethylidene)-5-(4-methylpyridin-3-yl)-1H-pyrrolo[2,3-c]pyridin-2(3H)-one] are 80.2%, 88.7% and less than 50 nM.

By inhibition is commonly meant the relative decrease from the control value, in per cent. One may read the IC50 as the concentration at which inhibition is half-maximal. Read a low IC50 as inhibition by little substance.
